This is an account of results in US12612395B2, “Rocaglate derivatives and uses thereof” (TRUSTEES OF BOSTON UNIVERSITY, priority 2023, dated 2026).

One test has as its system GBM0308 CSCs. Kind of test: Dose-response killing of GBM CSCs (PI/Hoechst, Celigo cytometer). It is filed as cell-based. The following applies: for CSCs Max. observed efficacy (% dead cells): up to 10 μM. An excerpt:
(§1) The inventors first evaluated a cohort of seven rocaglate translation inhibitors (1, 3-7, and 9, FIG. 1A and Table 1, compounds 2 and 8 were not tested due to unavailability). To assay for compounds that selectively affect GBM CSCs, the inventors employed the patient-derived tumor-initiating cell (TIC) cell line […] that forms neurospheres (consisting exclusively of tumor-initiating cells or CSCs) when cultured in neurobasal (NBE) medium. Upon exposure to serum and growth factor withdrawal, however, the cell line differentiates, acquires a flattened morphology, and forms a non-CSC population.^20 Thus, compounds can be tested in parallel to assess their effect on GBM CSCs vs. GBM non-CSCs as separate populations with a clean and robust response. This approach has been previously used to perform RNAi-based genetic screens to identify modulators of CSCs.^20 In this study, GBM0308 cells, cultured in stem cell conditions to form CSCs or in medium containing serum to induce differentiation into a non-CSC population, were treated in parallel with compounds at varying doses. Three days post-treatment, propidium iodide (PI) and Hoechst staining were performed and quantified using a Celigo image cytometer. Hoechst dye stained all […] nucleated cells, while PI exclusively stained dead cells. Cell viability and the percentage of cell death were then determined.
(§2) Cell Culture: Glioblastoma stem cell lines GBM0308, BT145, and BT112 were cultured in neurobasal (NBE medium) containing N-2 and B-27 supplements, EGF, bFGF, L-glutamine, and Penicillin-Streptomycin), as described previously.^19 Adherent GBM cells were cultured in serum-containing DMEM media (Invitrogen) supplemented with 10% fetal bovine serum (Corning Cellgro™). Cells were incubated at 37° C. and 5% CO2 to allow neurosphere formation. For seeding and subculturing, the neurospheres were gently trypsinized with 0.025% trypsin to form a single-cell suspension.
(§3) Dose-Response Testing in GBM Cells: Briefly, on day 1, cells were seeded in triplicate. For CSCs, 1500 cells/well were plated in a low attachment 96-well plate with NBE media and incubated for 3 days at 37° C. and 5% CO2 to allow the formation of neurospheres. For non-CSCs, 3000 cells/well were plated in a 96-well plate with DMEM media supplemented with 10% FBS. Similarly, the assay plates were also incubated for the same duration. Compound treatments started on day 4. Each compound was resuspended in DMSO and then diluted to different concentrations in media to a final concentration of DMSO less than 1%. The compounds were added at concentrations of 10, 3.3, 1.11, 0.37, 0.12, 0.041, 0.013, and 0.004 µM, respectively. DMSO-treated cells served as a control. After 72 h incubation with the compounds, fluorescent stains, propidium iodide, and Hoechst 33342 (Life Technologies, Carlsbad, CA), were used to stain the GBM cells to determine cell viability. A staining solution in 1×PBS was prepared by mixing PI and Hoechst 33342 to working concentrations of 2.5 μM and 20 μM, respectively. 20 μL of this staining solution was added per well, and plates were incubated at 37° C. and 5% CO2 for 60 min. After incubation, plates were read by Celigo imaging cytometer using an inbuilt Celigo application; Cell Viability (Dead+Total). For the viability measurement, the total number of neurospheres/cells and dead neurospheres/cells in each well were counted by the cytometer. The percentage of PI+ cells was normalized to DMSO and plotted against the drug concentration to calculate the EC50 with a four-parameter, variable-slope dose-response curve with an upper constraint of <100% dead cells and a lower constraint of =0% dead cells (GraphPad Prism v.10.0.0). For all dose response experiments, the experimental maximal efficacy (maximum observed % cell death) is reported. Relative EC50 values are reported for all compounds killing >50% of cells.

Another test deals with GBM0308 non-CSCs. Kind of test: Dose-response killing of GBM non-CSCs (PI/Hoechst, Celigo cytometer). The following applies: 72 h; for Non-CSCs Max. observed efficacy (% dead cells): Table 1, up to 10 μM; for Emax: Homo sapiens. It is filed as cell-based.
From the text: as §1, §2, §3

The test system of the next test is eIF4A paralogs (eIF4A1). Kind of test: PISA assay in GBM0308 cell lysates, eIF4A. The test is classed as binding, human. The settings on record: GBM0308 lysate, compound 10 μM, AMP-PNP and (AG)8 RNA added. An excerpt: (§4) Derivatization-free target identification using a modified proteome integral solubility alteration (PISA) assay. The inventors next pursued proteome-wide target identification to better understand the target profiles of CSC-selective rocaglates. To enable cross-compound comparisons of target engagement, the inventors opted to use the Proteome Integral Solubility Alteration (PISA) assay,^29 a derivative of the mass spectrometry-based Cellular Thermal Shift Assay (MS-CETSA). In MS-CETSA,^30,31 target engagement is inferred through proteome-wide analysis of compound-induced changes to protein thermal stability; proteins with a shift in their half-maximal thermal denaturation temperature upon compound treatment are flagged as potential targets. The PISA assay obviates the need for MS-CETSA-derived thermal denaturation curves through curve integration by pooling of individual temperature points into a single “integral” sample for each treatment condition, thereby increasing throughput (FIG. 9). In contrast to MS-CETSA (which relies on curve comparisons), PISA determinations are performed by simply comparing soluble protein abundance levels between compound- and DMSO-treated samples. Importantly, protein fold-change measurements in PISA experiments generally scale with the thermal shift derived from CETSA experiments, and the magnitude of a thermal shift can inform on relative affinity between compounds and individual targets.^30,32-25 Maximal stability changes are protein-specific,^36 however, precluding estimations of preference for one target over another. Thus, PISA allows for simultaneous target profiling and comparisons of binding affinity between different compounds within a given target.
(§5) Of note, we also detected stabilization of DDX3Y, a paralog which shares >90% sequence similarity with DDX3X.
PISA assay in GBM0308 cell lysates: The PISA assay was performed in lysates as described by Gaetani and coworkers^S2 with slight modification. Pelleted GBM0308 cells were resuspended in ice-cold lysis buffer (1×PBS pH 7.4, 2 mM MgCl2, 0.5 mM AMP-PNP, 1 μM (AG)8 RNA, HALT protease inhibitor cocktail EDTA-free) and subjected to three freeze-thaw cycles with liquid nitrogen to extract lysate proteins. Thawing was performed at room temperature until ˜80% thawed, then completed on ice. Lysate was clarified by centrifugation for 10 minutes at 20,000 RCF and 4° C., transferred to a fresh Eppendorf tube, then centrifuged again for 10 minutes at 20,000 RCF and 4° C. to ensure removal of debris. Lysate concentration was determined using a Pierce BCA Protein Assay Kit and adjusted to 2.0 mg/mL in lysis buffer. Lysate was mixed 1:1 with a 2× solution of test compound or DMSO in lysis buffer, gently aspirated to ensure proper mixing, and incubated at room temperature for 10 minutes. […]

The target of a further test is T1, DDX3X (Homo sapiens, UniProt O00571).
T1 construct: endogenous in cells; host or cells: GBM0308 glioblastoma stem cells (lysate)
Kind of test: PISA assay in GBM0308 cell lysates, DDX3X. The test is classed as binding. The settings on record: GBM0308 lysate, compound 10 μM, AMP-PNP and (AG)8 RNA added.
From the text: as §4, §5
PISA assay in GBM0308 cell lysates: The PISA assay was performed in lysates as described by Gaetani and coworkers^S2 with slight modification. […] Lysate concentration was determined using a Pierce BCA Protein Assay Kit and adjusted to 2.0 mg/mL in lysis buffer. […]

The mark [1] stands for this setting: Table 1, GBM0308 CSCs, 72 h treatment, relative EC50, given for compounds causing at least 50% cell death, read-out: CSCs EC50.
[2] abbreviates: Homo sapiens, 72 h, read-out: CSCs EC50 (μM), Table 2, GBM0308 CSCs, 72 h treatment, relative EC50.
[3] abbreviates: Homo sapiens, 72 h, read-out: CSCs Max. observed efficacy (% dead cells), Table 2, GBM0308 CSCs, 72 h, highest tested concentration 10 μM.
Where [4] appears, read: read-out: Non-CSCs Max. observed efficacy (% dead cells), Table 2, GBM0308 non-CSCs, highest tested concentration 10 μM.
[5] abbreviates: Homo sapiens, 72 h, read-out: CSC Max. observed efficacy (% dead cells), Table 7, cell line not given.
Where [6] appears, read: Homo sapiens, read-out: CSC EC50 (μM), Table 7, cell line not given.
Where [7] appears, read: read-out: Non-CSC Max. observed efficacy (% dead cells), Table 7, cell line not given.

Read-outs that look alike come from different tables or passages of the source.

T1 sequence (O00571 whole entry): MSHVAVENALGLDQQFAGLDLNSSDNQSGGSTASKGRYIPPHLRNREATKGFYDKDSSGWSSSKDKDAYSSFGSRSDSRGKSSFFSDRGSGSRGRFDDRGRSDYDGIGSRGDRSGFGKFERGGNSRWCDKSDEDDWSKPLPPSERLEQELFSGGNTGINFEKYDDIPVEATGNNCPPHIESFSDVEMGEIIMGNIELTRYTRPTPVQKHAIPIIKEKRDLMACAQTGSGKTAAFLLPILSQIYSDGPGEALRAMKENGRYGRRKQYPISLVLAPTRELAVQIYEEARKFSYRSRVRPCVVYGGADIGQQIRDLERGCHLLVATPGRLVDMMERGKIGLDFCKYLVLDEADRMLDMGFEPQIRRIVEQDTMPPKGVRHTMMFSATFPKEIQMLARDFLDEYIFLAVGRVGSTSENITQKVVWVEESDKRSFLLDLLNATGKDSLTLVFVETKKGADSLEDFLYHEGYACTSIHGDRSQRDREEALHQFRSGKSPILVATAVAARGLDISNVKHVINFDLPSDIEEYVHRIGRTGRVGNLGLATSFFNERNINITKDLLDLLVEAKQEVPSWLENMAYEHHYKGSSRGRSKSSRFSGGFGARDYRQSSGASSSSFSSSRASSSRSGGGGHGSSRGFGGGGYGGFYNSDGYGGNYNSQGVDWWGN

On to “rocaglamide A [(−)-1, reference compound]”, for which the “CSCs Max. observed efficacy (% dead cells)” value in the test on GBM0308 CSCs (Table 1, GBM0308 CSCs, 72 h) is reported as 84%. For the same compound, the EC50 in the test on GBM0308 CSCs (setting [1]) worked out at 0.387 µM. Moreover, the “Non-CSCs Max. observed efficacy (% dead cells)” value with GBM0308 non-CSCs (GBM0308 non-CSCs) worked out at 31%. The “thermal stabilization of eIF4A paralogs (PISA), in words” value in the test on eIF4A paralogs (eIF4A1) is reported as “thermal stabilization”. Besides, at DDX3X, the “thermal stabilization of DDX3X (PISA), in words” value is recorded as “thermal stabilization”.
With `COc1cc(OC)c2c(c1)O[C@@]1(c3ccc(Br)cc3)[C@H](c3ccccc3)[C@@H](C(=O)NS(=O)(=O)N(C)C)[C@@H](O)[C@@]21O` (racemic) [BUCMD747 (rac), (1R,2R,3S,3aR,8bS)-3a-(4-bromophenyl)-N-(N,N-dimethylsulfamoyl)-1,8b-dihydroxy-6,8-dimethoxy-3-phenyl-2,3,3a,8b-tetrahydro-1H-cyclopenta[b]benzofuran-2-carboxamide], the Emax worked out at 89% in the test with GBM0308 CSCs (Homo sapiens, 72 h, Table 7, cell line not given, read-out: CSC Max. observed efficacy (% dead cells)) and 27% with GBM0308 non-CSCs (Table 7, cell line not given, read-out: Non-CSC Max. observed efficacy (% dead cells)). For the same compound, in the test on GBM0308 CSCs (Homo sapiens, Table 7, cell line not given, read-out: CSC EC50), the EC50 is 0.453 µM.
Consider `C#CCNS(=O)(=O)NC(=O)[C@H]1[C@@H](O)[C@@]2(O)c3c(OC)cc(OC)cc3O[C@@]2(c2ccc(Br)cc2)[C@@H]1c1ccccc1` [(−)-21, (1R,2R,3S,3aR,8bS)-3a-(4-bromophenyl)-1,8b-dihydroxy-6,8-dimethoxy-3-phenyl-N—(N-(prop-2-yn-1-yl)sulfamoyl)-2,3,3a,8b-tetrahydro-1H-cyclopenta[b]benzofuran-2-carboxamide], for which the EC50 with GBM0308 CSCs (setting [2]) came out at 0.016 µM. The Emax in the test with GBM0308 CSCs (setting [3]) was 92%; with GBM0308 non-CSCs (setting [4]), 27%.
In the case of `COc1ccc([C@@]23Oc4cc(OC)cc(OC)c4[C@]2(O)[C@H](O)[C@H](C(=O)NS(C)(=O)=O)[C@H]3c2ccccc2)cc1` [(−)-15, (1R,2R,3S,3aR,8bS)-1,8b-dihydroxy-6,8-dimethoxy-3a-(4-methoxyphenyl)-N-(methylsulfonyl)-3-phenyl-2,3,3a,8b-tetrahydro-1H-cyclopenta[b]benzofuran-2-carboxamide], the EC50 is 1 to 10 µM with GBM0308 CSCs (setting [2]) and 0.98 µM in the test on GBM0308 CSCs (read-out: CSCs EC50, Table 2, GBM0308 CSCs, 72 h treatment, relative EC50). Also, the Emax was 85% in the test on GBM0308 CSCs (setting [3]) and 19% in the test with GBM0308 non-CSCs (setting [4]).
Regarding `COc1cc(OC)c2c(c1)O[C@@]1(c3ccc(C#N)cc3)[C@H](c3ccccc3)[C@@H](C(=O)NS(=O)(=O)N(C)C)[C@@H](O)[C@@]21O` [ZW-12-30, (1R,2R,3S,3aR,8bS)-3a-(4-cyanophenyl)-N—(N,N-dimethylsulfamoyl)-1,8b-dihydroxy-6,8-dimethoxy-3-phenyl-2,3,3a,8b-tetrahydro-1H-cyclopenta[b]benzofuran-2-carboxamide], the Emax was determined as 94% with GBM0308 CSCs (setting [5]) and 21% with GBM0308 non-CSCs (setting [7]). The EC50 with GBM0308 CSCs (setting [6]) turned out to be 0.632 µM.
With `COc1cc(OC)c2c(c1)O[C@@]1(c3ccc(Cl)cc3)[C@H](c3ccccc3)[C@@H](C(=O)NS(=O)(=O)N(C)C)[C@@H](O)[C@@]21O` [ZW-12-31, (1R,2R,3S,3aR,8bS)-3a-(4-chlorophenyl)-N—(N,N-dimethylsulfamoyl)-1,8b-dihydroxy-6,8-dimethoxy-3-phenyl-2,3,3a,8b-tetrahydro-1H-cyclopenta[b]benzofuran-2-carboxamide], the values for the Emax with GBM0308 CSCs (setting [5]) and with GBM0308 non-CSCs (setting [7]) were 72% and 25%, respectively. The EC50 in the test on GBM0308 CSCs (setting [6]) turned out to be 0.693 µM.
On the same counts, the results for `COc1cc(OC)c2c(c1)O[C@@]1(c3ccc(Br)cc3)[C@H](c3ccccc3)[C@@H](C(=O)NS(=O)(=O)N(C)C(C)C)[C@@H](O)[C@@]21O` [ZW-12-34, (1R,2R,3S,3aR,8bS)-3a-(4-bromophenyl)-1,8b-dihydroxy-N—(N-isopropyl-N-methylsulfamoyl)-6,8-dimethoxy-3-phenyl-2,3,3a,8b-tetrahydro-1H-cyclopenta[b]benzofuran-2-carboxamide] are 79%, 18% and 1.85 µM.
On to `COc1ccc([C@@]23Oc4cc(OC)cc(OC)c4[C@]2(O)[C@H](O)[C@H](C(=O)N(C)OC)[C@H]3c2ccccc2)cc1` (racemic) [rac-6, rohinitib, reference compound], for which, in the test on GBM0308 CSCs (Table 1, GBM0308 CSCs, 72 h), the “CSCs Max. observed efficacy (% dead cells)” value was found to be 81%. In addition, in the test on GBM0308 CSCs (setting [1]), the 50% effective concentration (EC50) was found to be 0.922 µM. Further, the “Non-CSCs Max. observed efficacy (% dead cells)” value in the test with GBM0308 non-CSCs (GBM0308 non-CSCs) came out at 25%.
